The text below walks through data of publication PMC7871333 (Science translational medicine, 2020).

For data set [1] the following is noted: in vivo.
For data set [2] the following is noted: rats; cited from earlier work.

Turning to `Cn1c(=O)c2c(ncn2C)n(C)c1=O` [caffeine], the “Caffeine pharmacokinetic parameters sampled in plasma or ISF” value in data set [1] is reported as “not significantly different”.

Consider `CC/N=c1\cc2oc3cc(NCC)c(C)cc3c(-c3ccccc3C(=O)OCC)c-2cc1C` [rhodamine 6G], for which, in data set [2], the “Concentration in ISF compared to serum” value was “lower than in serum”.
